The results in this text go back to ChEMBL document CHEMBL1129343, “Retinoic acid receptor beta,gamma-selective ligands: synthesis and biological activity of 6-substituted 2-naphthoic acid retinoids” (J Med Chem, 1996).

Assay [1] concerns the target T1, Retinoic acid receptor beta (Homo sapiens, UniProt P10826).
T1 sequence (P10826 whole entry): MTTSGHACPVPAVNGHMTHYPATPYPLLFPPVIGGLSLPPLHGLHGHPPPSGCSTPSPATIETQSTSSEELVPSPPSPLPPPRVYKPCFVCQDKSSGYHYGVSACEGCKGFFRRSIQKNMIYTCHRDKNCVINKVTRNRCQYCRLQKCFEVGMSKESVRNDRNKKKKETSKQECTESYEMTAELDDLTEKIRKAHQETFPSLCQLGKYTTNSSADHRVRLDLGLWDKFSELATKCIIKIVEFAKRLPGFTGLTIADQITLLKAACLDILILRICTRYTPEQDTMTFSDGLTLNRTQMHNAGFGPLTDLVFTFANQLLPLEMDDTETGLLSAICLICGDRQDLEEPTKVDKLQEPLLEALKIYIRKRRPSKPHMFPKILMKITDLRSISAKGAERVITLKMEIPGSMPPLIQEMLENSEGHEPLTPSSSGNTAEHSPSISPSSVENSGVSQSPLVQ
Kind of assay: Apparent binding constant for Retinoic acid receptor beta in HeLa cellGAL-4 transactivation assay. It is filed as cell-based.

For assay [2], the target named is T2, Retinoic acid receptor alpha (Homo sapiens, UniProt P10276).
T2 sequence (P10276 whole entry): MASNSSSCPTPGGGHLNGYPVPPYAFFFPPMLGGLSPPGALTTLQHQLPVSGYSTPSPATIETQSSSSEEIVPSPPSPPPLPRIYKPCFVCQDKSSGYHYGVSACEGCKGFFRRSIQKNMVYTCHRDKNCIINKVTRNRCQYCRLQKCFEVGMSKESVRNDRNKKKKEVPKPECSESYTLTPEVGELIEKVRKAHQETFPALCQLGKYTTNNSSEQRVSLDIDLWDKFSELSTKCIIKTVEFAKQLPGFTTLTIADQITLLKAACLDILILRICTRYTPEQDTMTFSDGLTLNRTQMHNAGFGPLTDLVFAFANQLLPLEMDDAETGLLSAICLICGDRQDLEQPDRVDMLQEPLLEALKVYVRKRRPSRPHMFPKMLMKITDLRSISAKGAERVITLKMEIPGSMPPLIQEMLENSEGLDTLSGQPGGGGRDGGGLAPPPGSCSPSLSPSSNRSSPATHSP
In words: Apparent binding constant against Retinoic acid receptor alpha in HeLa cell GAl-4 transactivation assay. It is filed as cell-based.

As for `CC1(C)CCC(C)(C)c2cc(/C(=N/NS(C)(=O)=O)c3ccc4cc(C(=O)O)ccc4c3)ccc21`, the Kd in assay [1] was 1.27 µM; in assay [2], 11 µM.
